Data published in PubChem BioAssay (NCI).
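Cells were grown in 96-well plates and exposed to each compound for 48 hours at five concentrations; endpoints were interpolated linearly between bracketing concentrations, or set to the highest concentration if not reached. TGI: concentration producing complete growth inhibition.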

Key:
Test in all cases: inhibition of tumour cell growth, NCI panel, 48 h
[1] = system: A498 renal
[2] = system: A549 NSCLC
[3] = system: HCC-2998 colon
[4] = system: HCT-15 colon
[5] = system: KM12 colon
[6] = system: MDA-N
[7] = system: RPMI-8226 leukemia
[8] = system: RXF 393 renal
[9] = system: SN12C renal
[10] = system: TK-10 renal

| SMILES | TGI [1] [µM] | TGI [2] [µM] | TGI [3] [µM] | TGI [4] [µM] | TGI [5] [µM] | TGI [6] [µM] | TGI [7] [µM] | TGI [8] [µM] | TGI [9] [µM] | TGI [10] [µM] |
| --- | --- | --- | --- | --- | --- | --- | --- | --- | --- | --- |
| NC(=O)CN1C=CCC(C(N)=O)=C1 | > 100 | > 100 | > 100 | > 100 | > 100 | > 100 | > 100 | > 100 | > 100 |  |
| CCCCCCCCC#CCCCCCCCCCC[C@@H]1C(=O)O[C@H](C)[C@@H]1O (tested in a mixture with another compound) | > 100 | 28.6 | > 100 | > 100 | 21.9 | 79.6 | 39.9 | 28.4 | 32.3 | 40.8 |
| O=C(O)c1cccc(NC(C(=O)c2ccccc2)c2ccccc2)c1 (configuration not stated) | > 100 | > 100 | > 100 | > 100 | > 100 | > 100 | > 100 | > 100 | > 100 | > 100 |
| C#CCOC(=O)c1ccc(OC(C)=O)cc1 | > 100 |  | > 100 | > 100 | > 100 | > 100 | > 100 | > 100 | > 100 | > 100 |
| O=C(Nc1nn[nH]n1)c1nc(-c2ccccc2)cc(=O)[nH]1 | > 100 | > 100 | > 100 | > 100 | > 100 | > 100 | > 100 | > 100 | > 100 | > 100 |
| CCOc1cc2c(cc1O)C(O)C[C@@H]1[C@@H]2CC[C@]2(C)[C@@H](O)CC[C@@H]12 (some centres not stated) | 0.497 | > 100 | 30.4 | > 100 | > 100 | 0.326 | > 34 | 5.25 | > 100 | > 100 |
| C[C@H](C1CC2(C)OC2(C)C(=O)O1)[C@H]1CC[C@H]2[C@@H]3[C@@H]4O[C@@H]4[C@@]4(O)CC=CC(=O)[C@]4(C)[C@H]3CC[C@]12C (some centres not stated) | > 50 | > 50 | > 50 | > 50 | > 50 | > 50 | > 50 | 23.9 | > 50 | > 50 |
| CCOC1=C(c2ccccc2)N2CCCCC2O1 (configuration not stated) | 32.2 | > 100 | 12.8 | 98.6 | 14 | 21.7 | > 24 | 37.4 | > 41.9 | > 38.6 |
| COC(NC(=O)Nc1ccccc1C)(C(F)(F)F)C(F)(F)F | > 100 | > 100 | > 100 |  | > 100 | > 100 | > 100 | > 100 | > 100 | > 100 |
| Cc1nc(Nc2ccccc2Cl)sc1C(=O)CC(=O)C(N)=O | 66.7 | > 100 | > 100 | > 100 | > 100 | > 100 | > 100 | > 100 | > 100 | > 100 |
| CCOC(=O)c1cc(Br)c(-c2onc(C)c2Br)[nH]1 | > 100 | > 100 | > 100 | > 100 | > 100 | > 100 | > 100 | 38.7 | > 100 |  |
| COc1ccccc1NC(=O)CC(=O)NN | > 100 | > 100 | > 100 | > 100 | > 100 | > 100 | > 100 | > 100 | > 100 | > 100 |
| O=C1/C(=C/c2cccc3ccccc23)CCc2ccc([N+](=O)[O-])cc21 | > 100 | > 100 | > 100 | > 100 | > 100 | 23.4 | > 100 | 88.8 | > 100 | > 100 |
| OC(NN=C1CCCC1)(C(F)(F)Cl)C(F)(F)Cl | > 10 | > 10 | > 10 | > 10 | > 10 | > 10 | > 10 | > 10 | > 10 | > 10 |
| CCNc1cc2c3c(c1)CCN3CCC2 | > 10 | > 10 | > 10 | > 10 | > 10 | > 10 | > 10 | > 10 | > 10 | > 10 |
| CC(C)CCOC(=O)NC(Nc1ccc(F)cc1)(C(F)(F)F)C(F)(F)F | > 100 | > 100 | > 100 | > 100 | > 100 | > 100 | > 100 | > 100 | > 100 | > 100 |
| CC1(C)C=C(/C=N/Nc2ccccc2)C(C#N)=C(O)C1(C#N)C#N | > 100 | > 100 | > 100 |  | > 100 | > 100 | > 100 | > 100 | > 100 | > 100 |
| C=C1CC(C)(c2cccc(Nc3nc4ccccc4c4occc34)c2)OC1=O (configuration not stated) | 32.1 | 46.3 | 5.84 | 17.4 | 43.8 | 18.3 | 4.62 | 6.02 | 7.75 | 9.99 |
| COC(=O)Cn1cnc2c(Cl)nc(Nc3ccccc3)nc21 | > 100 | > 100 | 82.8 | 80.4 | > 100 | > 100 | > 100 | > 100 | > 100 | > 100 |
| CC(CNC(N)=O)NC(N)=O (configuration not stated) | > 100 | > 100 | > 100 | > 100 | > 100 | > 100 | > 100 | > 100 | > 100 | > 100 |
| NCCSCCC(=O)O | 99.5 | > 100 | 98.4 | > 100 | > 100 | > 100 | > 92.3 | > 100 | > 100 | > 100 |
| COc1cccc(C2c3cc4c(cc3OC(Nc3ccccc3)C2C)OCO4)c1O (configuration not stated) | 23 | 23.6 | 36.3 | 48.4 | 24.8 | 6.98 | 43.8 | 31.4 | 27.8 | 64.2 |
| CC(=O)OC[C@H]1On2nnnc2[C@H](OC(C)=O)[C@@H](OC(C)=O)[C@@H]1OC(C)=O | > 100 | > 100 | > 100 | > 100 | > 100 | > 100 | > 100 | > 100 | > 100 | > 100 |
| S=C1SC(=Nc2ccccc2)C(=Nc2ccccc2)N1c1ccc2ccccc2c1 | > 100 |  | > 100 | > 100 | > 100 | > 100 | > 100 | > 100 | > 100 |  |
| CC(C)=CCC[C@@H](C)C1=C(O)C(Nc2ccccc2I)=C(C)C(=O)C1=O | 31.5 | > 50.6 | 56.7 | > 75 | 19.7 | > 75 | > 36.8 | > 50 | > 75 | > 75 |
| N#Cc1c(N)nc2c3c1NC(=O)C(C(N)=O)C3c1ccccc1O2 (configuration not stated) | > 100 | > 100 | > 100 | > 100 | > 100 | > 100 | > 100 | > 100 | > 100 | > 100 |
| CC(=O)OCC1OC(n2c(C)c(C)c(C)c(C#N)c2=S)C(OC(C)=O)C(OC(C)=O)C1OC(C)=O (configuration not stated) | > 100 | > 100 | > 100 | > 100 | > 100 | > 100 |  | 57.6 | > 100 | > 100 |
| Cc1c([C@H](C)[C@@H]2NC[C@@H](C)C[C@H]2O)ccc2c1C[C@H]1[C@H]2CC=C2C[C@@H](O)CC[C@@]21C | 33.6 | 47.9 | 30 | 57 | 37.2 | 31 | 17.9 | 48.2 | 69.5 | 67.3 |
| CCCCCCCCOc1ccc(/C=C/C2=[N+](CCO)CCO2)cc1 | 11.7 | 10.7 | 11.9 | 25 | 11 | 12.3 | 5.02 | 7.91 | 11.9 | 17.3 |
| Cc1ncc(COP(=O)(O)O)c(/C=C2\SC(=S)NC2=O)c1O | > 100 | > 100 | > 100 | > 100 | > 100 | > 100 | > 100 | > 100 | > 100 | > 100 |
